Patent publication US6916905B2, “Dmt-Tic di-and tri-peptidic derivatives and related compositions and methods of use” (The United States of America as represented by the …, priority 2000, dated 2005)
“Also recorded” adds a separate entry of the source. Like-named read-outs stand apart in the source and are kept apart here. Non-standard residues stand in square brackets, D forms with d. Residues, ends and D or L forms follow the SMILES beside them. ξ: configuration not given here. *: point of attachment. Dmt = Cc1cc(O)cc(C)c1C[C@H](N)C(=O)O; ξDmt = Cc1cc(O)cc(C)c1CC(N)C(=O)O; Tic = O=C(O)[C@@H]1Cc2ccccc2CN1; NHNH2 = NN*

Assays:
δ-opioid receptors [1] = biological target: T1, δ-opioid receptors (Rattus norvegicus, UniProt P33533); assay: Rat brain synaptosome (P2) binding, agonist [3H]DPDPE (Example 47); conditions: for Agonist K1μ/Kiδ: selectivity, Kiδ from agonist radioligand [3H]DPDPE; for δ affinity, in words / δ/μ selectivity, in words: from Table II binding
T1 construct: assayed with a rat brain synaptosomal preparation (P2); from tissue; host or cells: rat brain P2 synaptosomes
T1 sequence (P33533 whole entry): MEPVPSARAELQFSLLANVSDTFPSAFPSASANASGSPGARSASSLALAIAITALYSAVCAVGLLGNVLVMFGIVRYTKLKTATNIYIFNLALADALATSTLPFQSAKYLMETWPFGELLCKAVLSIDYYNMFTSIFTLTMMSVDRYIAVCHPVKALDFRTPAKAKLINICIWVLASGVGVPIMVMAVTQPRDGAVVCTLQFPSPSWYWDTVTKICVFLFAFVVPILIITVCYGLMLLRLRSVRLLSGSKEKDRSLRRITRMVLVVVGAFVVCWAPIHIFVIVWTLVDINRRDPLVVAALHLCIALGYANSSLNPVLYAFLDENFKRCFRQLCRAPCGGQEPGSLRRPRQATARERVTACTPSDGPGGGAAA
Procedure: (§2) Briefly, the agonists [^3H]DPDPE (30-60 Ci/mmol, NEN-DuPont) and [^3H]DAGO (30-60 Ci/mmol, Amersham) were used to label δ and μ sites, respectively, under saturation binding conditions (2 hrs at 22° C.). Excess unlabeled peptide (2 μM) established non-specific binding levels and the labeled membranes were rapidly filtered on Whatman GF/C glass fibre filters, thoroughly washed, dried and measured for radioactivity using CytoScint (ICN, Irvine, Calif.). […] The affinity constants (Ki) were calculated according to Cheng and Prusoff (Biochem. Pharmacol. 22: 3099-3108 (1973)).

hMDR-1 = hMDR-1 (Homo sapiens, UniProt P08183); assay: Calcein AM assay for Pgp in hMDR-1 transfected G-185 fibroblasts (Example 49); conditions: calcein fluorescence
Chain of hMDR-1 (P08183 whole entry): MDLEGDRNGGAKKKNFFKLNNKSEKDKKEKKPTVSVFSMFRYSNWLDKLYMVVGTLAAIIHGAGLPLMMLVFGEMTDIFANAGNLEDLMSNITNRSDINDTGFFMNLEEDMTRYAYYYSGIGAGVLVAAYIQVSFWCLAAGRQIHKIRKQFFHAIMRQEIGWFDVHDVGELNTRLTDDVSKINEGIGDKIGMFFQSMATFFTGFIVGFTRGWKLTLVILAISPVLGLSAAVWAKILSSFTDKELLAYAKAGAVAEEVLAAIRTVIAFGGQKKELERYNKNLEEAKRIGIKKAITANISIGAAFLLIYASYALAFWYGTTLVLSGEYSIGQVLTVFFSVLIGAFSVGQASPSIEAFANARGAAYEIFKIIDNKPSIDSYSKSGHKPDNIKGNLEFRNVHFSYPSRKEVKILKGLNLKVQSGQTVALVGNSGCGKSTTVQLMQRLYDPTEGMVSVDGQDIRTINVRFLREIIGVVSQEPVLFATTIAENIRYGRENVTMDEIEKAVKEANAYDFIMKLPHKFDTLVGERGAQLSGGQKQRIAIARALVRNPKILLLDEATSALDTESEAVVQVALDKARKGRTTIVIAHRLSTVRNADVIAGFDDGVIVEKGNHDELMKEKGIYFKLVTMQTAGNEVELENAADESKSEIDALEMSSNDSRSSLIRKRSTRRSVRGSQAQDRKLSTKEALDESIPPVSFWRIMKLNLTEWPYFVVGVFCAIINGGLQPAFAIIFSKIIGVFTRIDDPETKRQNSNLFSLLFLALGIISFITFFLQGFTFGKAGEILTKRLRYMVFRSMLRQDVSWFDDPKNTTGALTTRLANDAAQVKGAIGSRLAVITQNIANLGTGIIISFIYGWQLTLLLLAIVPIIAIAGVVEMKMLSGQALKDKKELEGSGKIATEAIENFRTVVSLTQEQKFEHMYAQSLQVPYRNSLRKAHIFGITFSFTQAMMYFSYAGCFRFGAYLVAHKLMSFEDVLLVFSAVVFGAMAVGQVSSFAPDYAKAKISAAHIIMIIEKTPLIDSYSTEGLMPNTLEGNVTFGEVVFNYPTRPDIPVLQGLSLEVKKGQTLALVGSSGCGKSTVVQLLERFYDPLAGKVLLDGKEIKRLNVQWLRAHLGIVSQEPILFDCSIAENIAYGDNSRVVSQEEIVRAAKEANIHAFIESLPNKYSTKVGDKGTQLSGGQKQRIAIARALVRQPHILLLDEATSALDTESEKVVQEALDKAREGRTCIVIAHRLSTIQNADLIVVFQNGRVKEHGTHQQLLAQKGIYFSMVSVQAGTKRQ
Procedure: Stably transfected G-185 fibroblasts containing hMDR-1 and NIH 3T3 cell lines were grown to confluent monolayers in DMEM containing 4.5 g glucose/1, 10% fetal calf serum, L-glutamine, penicillin (50 units/ml), streptomycin (50 μg/ml) and 1 mM sodium pyruvate in 5% CO2 at 37° C. G-185 cells were maintained in […] colchicine.
The assay for Pgp is based on the diffusion of non-fluorescent calcein AM across the cell membrane. Calcein AM is then hydrolyzed and accumulates as the fluorescent calcein. In transfected cells expressing excess hMDR-1, Pgp extrudes calcein AM from the cell before hydrolysis occurs; inhibition of hMDR-1 results in the accumulation of intracellular calcein. Transfected G-185 cells and the NIH 3T3 cells were analyzed in triplicate using seven graded dosages of verapamil or the opioid peptides in 96-well plates. Cells (2.5×10^6/well) were incubated in 100 μl culture medium for 15 min at 37° C. and 50 μl of 1 μM calcein AM in PBS, plus 50 μl of verapamil or one of the present inventive compounds in PBS, or 100 μl of PBS alone (control) were added. Cells were mixed and incubated for 15 min at 37° C., then centrifuged for 5 min at 2,000×g, and then washed three times in 200 μl PBS. Cell pellets were resuspended in 200 μl PBS and transferred to white Microfluor Plates (Nunc, Copenhagen, Denmark) in order to measure calcein-specific fluorescence (494 nm absorption; 517 nm emission). Internal controls were carried out with each experiment using verapamil and PBS in order to compare the consistency between cell preparations. Means±SE (error bars) were determined and plotted using Prism™ (GraphPad, San Diego, Calif.).

μ-opioid receptors = biological target: T2, μ-opioid receptors (Rattus norvegicus, UniProt P33535); assay: Rat brain synaptosome (P2) binding, [3H]DAGO (Example 47)
T2 construct: assayed with a rat brain synaptosomal preparation (P2); from tissue; host or cells: rat brain P2 synaptosomes
T2 sequence (P33535 whole entry): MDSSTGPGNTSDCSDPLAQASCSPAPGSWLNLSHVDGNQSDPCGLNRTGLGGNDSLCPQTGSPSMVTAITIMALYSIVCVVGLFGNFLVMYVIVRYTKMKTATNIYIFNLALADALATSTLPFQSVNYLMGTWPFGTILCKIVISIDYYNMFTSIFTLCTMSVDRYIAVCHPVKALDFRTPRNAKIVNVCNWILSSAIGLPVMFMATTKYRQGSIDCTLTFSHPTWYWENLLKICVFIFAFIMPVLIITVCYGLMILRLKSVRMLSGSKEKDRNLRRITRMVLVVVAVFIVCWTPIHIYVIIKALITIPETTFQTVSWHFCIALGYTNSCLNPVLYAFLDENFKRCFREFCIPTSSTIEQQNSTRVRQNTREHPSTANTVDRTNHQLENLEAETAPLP

δ receptors = δ receptors (Mus musculus, UniProt P32300)
Chain of δ receptors (P32300 whole entry): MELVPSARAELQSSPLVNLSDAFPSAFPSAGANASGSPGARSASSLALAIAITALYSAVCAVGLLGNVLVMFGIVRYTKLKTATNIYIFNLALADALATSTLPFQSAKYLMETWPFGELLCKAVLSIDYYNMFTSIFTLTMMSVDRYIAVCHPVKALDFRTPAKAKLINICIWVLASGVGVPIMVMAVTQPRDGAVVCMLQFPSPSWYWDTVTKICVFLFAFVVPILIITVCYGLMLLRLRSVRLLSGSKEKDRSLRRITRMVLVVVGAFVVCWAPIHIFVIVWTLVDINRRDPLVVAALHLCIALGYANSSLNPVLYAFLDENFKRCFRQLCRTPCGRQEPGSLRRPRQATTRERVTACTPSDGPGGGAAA
Procedure: (§1) The functional bioactivity of the present inventive compounds was assessed using standard functional bioassays of δ and μ activity in MVD and GPI (Salvadori et al. (1995), supra; and Salvadori et al., J. Med. Chem. 36: 3748-3756 (1993)). […] Dose-response curves were obtained (Salvadori et al. (1995), supra) for both tissues. […] Data were derived from at least four independent tissue samples and dose-response curves from which the pA2 values were determined (Salvadori et al. (1997), supra) according to Arunlakshana and Schild (Br. J. Pharmacol. 14: 48-58 (1959)).

μ receptors = μ receptors (Cavia porcellus, UniProt P97266); assay: Guinea pig ileum (GPI) functional bioassay (Example 48)
Chain of μ receptors (P97266 whole entry, looked up): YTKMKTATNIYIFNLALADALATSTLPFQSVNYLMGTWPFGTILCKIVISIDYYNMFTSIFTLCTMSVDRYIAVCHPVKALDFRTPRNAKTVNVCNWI
Procedure: as §1

δ-opioid receptors [2] = biological target: T1, δ-opioid receptors; assay: Rat brain synaptosome (P2) binding, δ antagonist [3H]N,N(CH3)2-Dmt-Tic-OH (Example 47); conditions: for Antagonist K1μ/Kiδ: selectivity, Kiδ from antagonist radioligand [3H]N,N(CH3)2-Dmt-Tic-OH
Procedure: as §2

[3] = rat brain synaptosomes (P2), mean ± SEM, n in parentheses, read-out: Kiμ (nM) [^3H]DAGO
[4] = rat brain synaptosomes (P2), δ antagonist radioligand, mean ± SEM, n in parentheses, read-out: Kiδ(nM) [^3H]N,N(CH3)2-Dmt-Tic-OH
[5] = rat brain synaptosomes (P2), mean ± SEM, n in parentheses, read-out: Kiδ(nM) [^3H]DPDPE
[6] = MVD pA2 (range), δ antagonism against deltorphin C, mean (range)
[7] = δ antagonism, Ke = antilog of pA2
[8] = MVD Ke(nM), δ antagonism, Ke = antilog of pA2

Compound	Agonist K1μ/Kiδ (δ-opioid receptors [1])	Ki (μ-opioid receptors; [3]) [nM]	Ki (δ-opioid receptors [2]; [4]) [nM]	Antagonist K1μ/Kiδ (δ-opioid receptors [2])	Ki (δ-opioid receptors [1]; [5]) [nM]	bioactivity on MVD (δ), in words (δ receptors)	other results
CCN(CC)[C@@H](Cc1c(C)cc(O)cc1C)C(=O)N1Cc2ccccc2C[C@H]1C(=O)O [Compound 17, N,N(Et)2-DMT-Tic-OH]	35.3 ± 1.96 (3-5)	–	–	–	–	–	Ki (δ-opioid receptors [1]): 0.92 ± 0.19 nM
H-Dmt-Sar-Bid [DSB]	–	–	–	–	–	–	inhibition of hMDR-1 (Pgp), in words (hMDR-1): inactive
C[C@@H](NC(=O)[C@@H](N)Cc1ccc(O)cc1)C(=O)N[C@@H](Cc1ccccc1)C(=O)N[C@@H](Cc1c[nH]c2ccccc12)C(=O)N[C@@H](Cc1ccc(O)cc1)C(N)=O [[Trp^4,Tyr^5]DER, H-Tyr-D-Ala-Phe-Trp-Tyr-NH2] (H-Y[dA]FWY-NH2)	–	–	–	–	–	–	inhibition of hMDR-1 (Pgp), in words (hMDR-1): inactive
Cc1cc(O)cc(C)c1CC(N)C(=O)N1Cc2ccccc2C[C@H]1C(=O)O (stereo partly drawn) [H-(R,S)Dmt-Tic-OH, reference compound] (H-[ξDmt]-[Tic]-OH)	–	1160 ± 327	–	–	–	–	Kb (δ receptors): 6.76 nM; EC50 (μ receptors; μ agonism, read-out: GPI ED50): > 10000 nM
CNC(=O)[C@H](C)NC(=O)[C@@H]1Cc2ccccc2CN1C(=O)[C@@H](N)Cc1c(C)cc(O)cc1C [Compound 18, H-Dmt-Tic-Ala-NHMe] (H-[Dmt]-[Tic]-Ala-NHMe)	100	5.75 ± 0.72	0.12 ± 0.04	47	0.058 ± 0.01	very weak δ and μ agonism	EC50 (δ receptors): 1290 nM; EC50 (μ receptors): 290 nM; bioactivity on GPI (μ), in words (μ receptors): very weak δ and μ agonism
COC(=O)[C@@H]1Cc2ccccc2CN1C(=O)[C@@H](N)Cc1c(C)cc(O)cc1C [Compound 8, H-Dmt-Tic-OMe] (H-[Dmt]-[Tic]-OMe)	44	423 ± 25	500 ± 90	0.8	9.64 ± 2.2	–	δ affinity, in words (δ-opioid receptors [1]): lost high δ affinity; δ/μ selectivity, in words (δ-opioid receptors [1]): weakly μ selective
Cc1cc(O)cc(C)c1C[C@@H](C(=O)N1Cc2ccccc2C[C@H]1C(=O)O)N1CCCC1 [Compound 4, [des-NH2-α-pyrrolidine-1-yl]-Dmt-Tic-OH]	502	814 ± 65	1.42 ± 0.14	573	1.62 ± 0.19	detrimental for all bioactivity measurements on MVD	Kb (δ receptors; [6]): 126 nM; MVD Ke (δ receptors; [7]): 121 nM; EC50 (μ receptors): > 10000 nM
C[C@@H](NC(=O)[C@@H](N)Cc1ccc(O)cc1)C(=O)NCC(=O)N(C)[C@@H](Cc1ccccc1)C(=O)NCCO [DAGO, H-Tyr-D-Ala-Gly-N-MePhe-Gly-ol]	–	–	–	–	–	–	inhibition of hMDR-1 (Pgp), in words (hMDR-1): inactive; also recorded: lack of inhibition
Cc1cc(O)cc(C)c1C[C@@H](C(=O)N1Cc2ccccc2C[C@@H]1C(=O)NC12CC3CC(CC(C3)C1)C2)N(C)C [Compound 16, N,N(Me)2-Dmt-D-Tic-NH-1-adamantane]	0.36	–	–	0.42	–	greatly reduced bioactivity on MVD	Ki (δ-opioid receptors [2]): 120 ± 25.9 nM; Ki (δ-opioid receptors [1]): 140 ± 30 nM; δ affinity, in words (δ-opioid receptors [1]): lost high δ affinity; δ/μ selectivity, in words (δ-opioid receptors [1]): weakly μ selective; Ki (μ-opioid receptors): 50.5 ± 2.6 nM; Kb (δ receptors; [6]): 123 nM; MVD Ke (δ receptors; [7]): 128 nM; EC50 (μ receptors): 4480 nM; bioactivity on GPI (μ), in words (μ receptors): μM activity on GPI
Cc1cc(O)cc(C)c1C[C@H](N)C(=O)N1Cc2ccccc2C[C@H]1CC(=O)O [Compound 1, H-Dmt-βTic-OH]	498	418 ± 86	0.71 ± 0.04	590	0.85 ± 0.2	highest δ-antagonist functional bioactivities	Kb (δ receptors; [8]): 1.41 nM; Kb (δ receptors; [6]): 1.58 nM; EC50 (μ receptors): > 10000 nM
CNC(=O)[C@@H]1Cc2ccccc2CN1C(=O)[C@H](Cc1c(C)cc(O)cc1C)N(C)C [Compound 13, N,N(Me)2-Dmt-Tic-NHMe]	669	359 ± 62	0.28 ± 0.02	1268	0.54 ± 0.07	–	Kb (δ receptors; [6]): 0.407 nM; MVD Ke (δ receptors; [7]): 0.41 nM; bioactivity on GPI (μ), in words (μ receptors): weak μ antagonist; EC50 (μ receptors; μ agonism, read-out: GPI ED50): > 10000 nM; GPI Ke (μ receptors; μ antagonism): 0.39 µM; Kb (μ receptors; μ antagonism, mean (range), read-out: GPI pA2 (range) (converted)): 389 nM
Cc1cc(O)cc(C)c1CC(CN)C(=O)N1Cc2ccccc2C[C@H]1C(=O)O (stereo partly drawn) [Compound 2, H-αDmt-Tic-OH]	155	1740 ± 16	475 ± 37	4	11.2 ± 3.5	–	–
Cc1cc(O)cc(C)c1C[C@H](N)C(=O)N1Cc2ccccc2C[C@@H]1C(=O)NC12CC3CC(CC(C3)C1)C2 [Compound 12, H-Dmt-D-Tic-NH-1-adamantane]	0.01	–	–	0.004	–	–	Ki (δ-opioid receptors [2]): 70.3 ± 7.25 nM; Ki (δ-opioid receptors [1]): 24.5 ± 4.9 nM; δ affinity, in words (δ-opioid receptors [1]): lost high δ affinity; δ/μ selectivity, in words (δ-opioid receptors [1]): moderately μ selective; Ki (μ-opioid receptors): 0.26 ± 0.08 nM; Kb (δ receptors; [8]): > 10000 nM; EC50 (μ receptors): 1680 nM; bioactivity on GPI (μ), in words (μ receptors): μM activity on GPI
Cc1cc(O)cc(C)c1C[C@H](N)C(=O)N1Cc2ccccc2C[C@H]1C(=O)NN [Compound 6, H-Dmt-Tic-NHNH2] (H-[Dmt]-[Tic]-NHNH2)	86	85.1 ± 7.3	42 ± 7.9	2	0.99 ± 0.04	–	δ/μ selectivity, in words (δ-opioid receptors [1]): essentially nonselective
Cc1cc(O)cc(C)c1C[C@@H](C(=O)N1Cc2ccccc2C[C@H]1C(=O)O)n1cccc1 [Compound 5, [des-NH2-α-pyrrole-1-yl]-Dmt-Tic-OH]	338	5590 ± 411	9.94 ± 2.5	562	16.6 ± 2.5	detrimental for all bioactivity measurements on MVD	MVD Ke (δ receptors; [7]): 408 nM
Cc1cc(O)cc(C)c1C[C@H](N)C(=O)N1Cc2ccccc2C[C@H]1C(=O)Nc1nnn[nH]1 [Compound 10, H-Dmt-Tic-NH-tetrazole-5-yl]	53	37 ± 4.5	9.75 ± 1.73	4	0.7 ± 0.03	weak δ antagonist	δ/μ selectivity, in words (δ-opioid receptors [1]): essentially nonselective; MVD Ke (δ receptors; [7]): 36.3 nM; bioactivity on GPI (μ), in words (μ receptors): very minimal activity on GPI
COC(=O)[C@H](C)NC(=O)[C@@H]1Cc2ccccc2CN1C(=O)[C@@H](N)Cc1c(C)cc(O)cc1C [Compound 19, H-Dmt-Tic-Ala-OMe] (H-[Dmt]-[Tic]-Ala-OMe)	48	11.3 ± 1.87	0.14 ± 0.04	83	0.23 ± 0.09	–	–
